Read-outs that look alike come from different tables or passages of the source.
Legend:
isolated urinary bladder = test: Anticholinergic activity on isolated urinary bladder (inhibition of carbachol-induced contraction of bladder strips); set-up: species or system guinea-pigs; settings: 60 minutes incubation with antagonist
Excerpt: a) Anticholinergic activity on isolated urinary bladder
Male guinea-pigs, weighing 250-350 g, were killed by a blow on the head and exsanguinated. The urinary bladders were quickly removed and placed in Na^+-Krebs, in which they were kept throughout the dissection procedure. The bladders were dissected free from adherent fat and connective tissue before they were cut open by an incision on each side from the base towards apex. The mucosa was carefully removed with a pair of scissors. Four strips, approximately 3-5 mm long were prepared by cutting in a parallel direction to the longitudinal muscle fibres, on each half of the bladder.
The bladder strips were immediately mounted vertically in 5 ml organ baths containing Na^+-Krebs solution aerated with carbogene gas to maintain the pH at about 7.4. The temperature, 37°C, was thermostatically controlled by a Lauda MS3 thermostatic circulator. The preparations were suspended between two hooks, one of which was connected to a Grass Instruments FT03 force transducer. The isomeric tension of the preparations was recorded by a Grass polygraph model 79D. The resting tension was applied to approximately 5 mN. The strips were allowed to stabilize for at least 45 minutes. During this period the resting tension was adjusted to 5 mN and the preparations were repeatedly washed.
In the preliminary experiments concentration - effect curves for carbachol (carbamylcholin chloride) were studied, in order to determine a suitable agonist concentration for inhibition studies with antagonist. The carbachol concentration chosen, 3 x 10^-6M, produced a submaximal contractant response (70%). In the inhibition studies, the strips were contracted with carbachol (3 x 10^-6M) every 15 minutes. The strips were washed three times after every agonist addition. This procedure was repeated until a reproducible contractant response was observed. A variation of about 10% for three subsequent contractions was accepted as reproducible.
Initially each antagonist was tested in a concentration of 10-t1M, on. two bladder-strips from different guinea-pigs. When a reproducible response with 3 × 10^-6M carbachol was obtained, the strips were incubated with the antagonist for 15 minutes before the next carbachol was added. If the antagonist produced more than 50% inhibition of the response to carbachol, a complete concentration-inhibition curve was also made. In the complete inhibition curves, the strips were then incubated for 60 minutes with a fixed concentration of the antagonist before the next addition of carbachol. The effect of the antagonists was calculated as per cent inhibition of the mean of the initial agonist-induced contractions. To generate concentration-inhibition curves the antagonists were studied in 6-8 concentrations and for each concentration a fresh preparation was used, i.e. the strips were only exposed to the antagonist once before they were discarded.

mice = test: Acute toxicity in mice, i.v. bolus; format: in vivo; settings: lowest dose where 4 mice of 4 tested died within 5 minutes after i.v. bolus
Method: (§1) d) Acute toxicity in mice
(§2) The antagonists to be tested were dissolved in 0.9% NaCI. If they were not soluble in 0.9% NaCI they were dissolved in double distilled water. The solutions were prepared on the day of the experiment.
(§3) White male mice, 25 g, were placed in a mouse holder. The tested compounds were given as i.v. bolus doses in one of the four tail-veins, with a volume of 0.01 ml/g mouse. Each substance concentration was given to a group of four mice. 4-5 different concentrations of the antagonists were made and tested.
(§4) LDso-interval : The LD50-interval was between the highest dose where 4 mice survived and the lowest dose where 4 mice died within 5 minutes after an i.v. bolus dose.

[1] = Acute toxicity in mice, i.v. bolus; format: in vivo; settings: mouse, in vivo, iv; LD50-interval: between highest dose where 4 mice survived and lowest dose where 4 mice died within 5 minutes after i.v. bolus
Method: as §1, §2, §3, §4

portal vein [2] = test: Noradrenaline antagonism on isolated portal vein; set-up: species or system rat; settings: 10 min
Excerpt: (§5) b) Antagonistic effect to noradrenaline and calcium on the portal vein
(§6) Preparation of isolated portal vein from rat
(§7) Animals : Albino, male rats, weighing about 200 g.
(§8) The rat is killed by a blow on the neck and decapitated. The abdomen is opened, the vein is dissected free from fat, cut open longitudinally and mounted in an organ bath. Changes in isometric tension is registered by a force displacement transducer, connected to an amplifier and a writing oscillograph.
Noradrenaline - antagonism on portal vein
Doses: Noradrenaline 3 x 10-^7 M
The chosen doses give about 70% of maximal response. The agonist is added to the bath at 10-minutes intervals. When reproducible contractions are obtained a fixed concentration of the test substance is added to the bath. After an incubation period of 10 minutes noradrenaline is added. The next concentration of the test substance is added when the original response of the agonist is obtained.
The antagonistic effect of the substance is calculated as per cent inhibition of the mean response by three preceding doses of the agonist.

portal vein [3] = test: Ca-antagonistic effect on isolated portal vein (spontaneous myogenic activity); set-up: species or system rat; settings: 10 mM K^+-solution added, cumulative doses
Excerpt: as §5, §6, §7, §8
Ca - antagonistic effect on portal vein
10 mM K^+-solution is added to the Krebs buffer to stabilize the spontaneous myogenic activity of the vein. The amplitude of the muscle contractions is measued. The test substance is added to the bath in cumulative doses until total inhibition is obtained.

conscious rat = test: Effect on heart rate in conscious rat (ECG); format: in vivo; settings: i.v. injection
Excerpt: e) Effect on heart rate in conscious rat
The animal is slightly anaestetized by ether and an infusion cannula is inserted into a tail vein. While still asleep the rat is placed in a simple device, made of a coarse, somewhat elastic net fixing the rat in a constant position. Electrodes are attached to the extremities and connected to an ECG-pulse pre-amplifier and a Grass polygraph. By recording the ECG, the heart rate can then be determined.
Before any substance is given the animal has regained consciousness and the heart rate has been constant for at least 15 minutes.
The substance is injected, i.v. in the infusion cannula and flushed with physiological saline.
ECG is recorded 0.25, 0.5, 1, 2, 3 and 5 minutes after completed injection and then every 5 minutes until the original heart rate is obtained.

[4] = rat portal vein, noradrenaline 3 x 10-^7 M, 10 minutes incubation, read-out: Anti-N.A. effect IC50
[5] = Cavia porcellus, 1 h, guinea-pig bladder strips contracted with carbachol 3 x 10^-6M, read-out: Antichol. effect IC50
[6] = rat portal vein, read-out: Anti-Ca effect IC50
[7] = read-out: Antichol. effect IC50, guinea-pig bladder strips contracted with carbachol 3 x 10^-6M
[8] = Rattus norvegicus, read-out: Anti-N.A. effect IC50 (M)
[9] = Cavia porcellus, 1 h, read-out: Antichol. effect IC50 (M), guinea-pig bladder strips contracted with carbachol 3 x 10^-6M
[10] = Rattus norvegicus, read-out: Anti-Ca effect IC50 (M), rat portal vein

SMILES	Lethal dose (mice) [mg/kg]	LD50 at 5 min [1] [mg/kg]	IC50 (portal vein [2]; [4]) [M]	IC50 (isolated urinary bladder; [5]) [M]	IC50 (portal vein [3]; [6]) [M]	further results
CC(C)N(CCC(c1ccccc1)c1ccccc1O)C(C)C (single isomer, unassigned; (-)) [Compound 1b, (-)-N,N-diisopropyl-3-(2-hydroxyphenyl)-3-phenylpropylamine]	–	–	–	–	–	IC50 (isolated urinary bladder; guinea-pig bladder strips contracted with carbachol 3 x 10^-6M, read-out: Antichol. effect IC50): 1.4e-08 M
CN(CCC(c1ccccc1O)c1ccccc1O)C(C)(C)C [Compound 5]	45	30 to 45	3.8e-05	4.9e-09	3e-05	Effect on heart rate threshold dose (conscious rat): 1 to 3 mg/kg
CN(CCC(c1ccccc1)c1cc(O)ccc1O)C(C)(C)C (stereo not drawn) [Compound 8]	>6	> 6	5e-05	3.1e-08	> 5e-05	–
CC(CC(c1ccccc1)c1ccccc1)NC(C)(C)C (stereo not drawn) [Terodiline, terodiline, reference compound]	20	15 to 20	2.4e-06	5.2e-07	1e-05	Effect on heart rate threshold dose (conscious rat): 1 to 3 mg/kg
Cc1ccc(O)c(C(CCN(C(C)C)C(C)C)c2ccccc2)c1 (single isomer, unassigned) [Compound 4b, (-)-N,N-Diisopropyl-3-(2-hydroxy-5-methylphenyl)-3-phenylpropylamine hydrogen D(-)-tartrate]	–	–	–	–	–	IC50 (isolated urinary bladder; [7]): 1.3e-06 M; IC50 (portal vein [3]; read-out: Anti-Ca effect IC50, rat portal vein): 6e-06 M
COc1ccccc1C(CCN(C)C(C)(C)C)c1ccccc1 (stereo not drawn) [Compound 2]	20	10 to 20	3.5e-06	1.5e-07	9e-06	–
COc1ccccc1C(CCN(C)C)c1ccccc1 (stereo not drawn) [GB-A-1.169.944, N,N-dimethyl-3-(2-methoxyphenyl)-3-phenylpropylamine, reference compound]	15	10 to 15	4.4e-06	1.2e-06	2.1e-05	–
Cc1ccc(O)c(C(CCN(C(C)C)C(C)C)c2ccccc2)c1.O=C(O)C(O)C(O)C(=O)O (single isomer, unassigned; (+)) [Compound 4a, (+)-N,N-Diisopropyl-3-(2-hydroxy-5-methylphenyl)-3-phenylpropylamine hydrogen tartrate]	–	10 to 20	–	–	–	IC50 (isolated urinary bladder; read-out: Antichol. effect IC50, guinea-pig bladder strips contracted with carbachol 3 x 10^-6M, tartrate): 1.3e-08 M; IC50 (portal vein [3]; read-out: Anti-Ca effect IC50, rat portal vein, tartrate): 6.5e-06 M
CC(C)N(CCC(c1ccccc1O)c1ccccc1O)C(C)C [Compound 13]	10	5 to 10	–	–	–	IC50 (portal vein [2]; [8]): 3e-05 M; IC50 (isolated urinary bladder; [9]): 9e-09 M; IC50 (portal vein [3]; [10]): 1.5e-05 M
COc1ccccc1C(CCN(C(C)C)C(C)C)c1ccccc1 (stereo not drawn) [Compound 3]	10	3 to 10	–	–	–	IC50 (portal vein [2]; [8]): 3.6e-06 M; IC50 (isolated urinary bladder; [9]): 2.4e-07 M; IC50 (portal vein [3]; [10]): > 0.0001 M
COc1ccccc1C(CCN1C(C)(C)CCCC1(C)C)c1ccccc1 (stereo not drawn) [Compound 10]	–	–	4e-06	6.2e-08	7e-06	–
Cc1ccc(O)c(C(CCN(C(C)C)C(C)C)c2ccccc2)c1 (stereo not drawn) [Compound 4, N,N-Diisopropyl-3-(2-hydroxy-5-methylphenyl)-3-phenylpropylamine]	–	30 to 40	–	–	–	IC50 (portal vein [2]; [8]): 5.5e-06 M; IC50 (isolated urinary bladder; [7]): 1.5e-08 M; IC50 (portal vein [3]; [10]): 6e-06 M
CC(C)N(CCC(c1ccccc1)c1ccccc1O)C(C)C (single isomer, unassigned; (+)) [Compound 1a, (+)-N,N-Diisopropyl-3-(2-hydroxyphenyl)-3-phenylpropylamine]	–	–	–	1.8e-08	–	–
CN(CCC(c1ccccc1)c1ccccc1O)C(C)(C)C (stereo not drawn) [Compound 9]	20	–	5e-05	1.6e-08	2.5e-05	–
CC(C)N(CCC(c1ccccc1)c1cc(O)ccc1O)C(C)C (stereo not drawn) [Compound 7]	50	30 to 50	5e-05	1.9e-08	6.5e-05	–
CC(C)N(CCC(c1ccccc1)c1ccccc1O)C(C)C (racemic) [Compound 1, N,N-Diisopropyl-3-(2-hydroxyphenyl)-3-phenylpropylamine]	20	10 to 20	1e-05	1.8e-08	1.5e-05	Effect on heart rate threshold dose (conscious rat): 1 to 3 mg/kg

Reference: patent EP0325571B1, “New amines, their use and preparation” (priority 1988, dated 1989)
